From patent US7795290B2 (Genentech, Inc., priority 2004, dated 2010)

Each molecule was assayed against T1, AKT1 (Homo sapiens, UniProt P31749) (assay: HTS ATP-utilizing enzyme assay, off-chip mobility-shift (Caliper HTS 250)). Conditions: kinase named = inhibitory activity/selectivity; test compound 10 μM; active = greater than three-sigma from mean.
T1 construct: purchased Upstate 14-276
Type: biochemical
Summary of the method: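 AKT1 activity was measured by off-chip mobility shift (Caliper HTS 250) as the ratio of peptide substrate to phosphorylated product. Test compound was at 10 μM, with 2.5 h incubation at 20–22° C. EDTA wells served as 100% control and DMSO wells as 0%. Hits were called at three-sigma limits.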

T1 sequence (P31749 whole entry): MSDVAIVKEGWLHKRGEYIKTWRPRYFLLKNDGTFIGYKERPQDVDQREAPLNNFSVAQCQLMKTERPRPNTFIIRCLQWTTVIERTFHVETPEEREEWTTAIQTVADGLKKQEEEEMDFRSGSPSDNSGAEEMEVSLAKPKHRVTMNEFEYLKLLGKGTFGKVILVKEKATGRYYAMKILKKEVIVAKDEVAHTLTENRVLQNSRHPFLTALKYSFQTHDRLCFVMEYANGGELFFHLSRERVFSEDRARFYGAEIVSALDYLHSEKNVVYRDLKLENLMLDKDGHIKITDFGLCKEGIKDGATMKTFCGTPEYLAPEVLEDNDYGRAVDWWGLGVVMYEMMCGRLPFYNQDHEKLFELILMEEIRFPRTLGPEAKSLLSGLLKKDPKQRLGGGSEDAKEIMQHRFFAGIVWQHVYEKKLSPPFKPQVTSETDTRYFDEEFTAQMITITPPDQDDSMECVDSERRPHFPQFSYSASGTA

Activity, AKT1:
CNC(=O)[C@H]1CCCN1CCCN(C(=O)c1cccs1)c1nc(-c2cc3ccccc3o2)cs1 [(R)-1-(3-(N-(4-(benzofuran-2-yl)thiazol-2-yl)thiophene-2-carboxamido)propyl)-N-methylpyrrolidine-2-carboxamide]
O=C(O)CNC(=O)c1ccc(-c2csc(N(CCCN3CCOCC3)C(=O)c3cccs3)n2)cc1 [2-(4-(2-(N-(3-morpholinopropyl)thiophene-2-carboxamido)thiazol-4-yl)benzamido)acetic acid]
CNC(=O)C1CCN(C(=O)CCCN(C(=O)c2cccs2)c2nc(-c3cc4ccccc4o3)cs2)CC1 [1-(4-(N-(4-(benzofuran-2-yl)thiazol-2-yl)thiophene-2-carboxamido)butanoyl)-N-methylpiperidine-4-carboxamide]
O=C(NCc1cccc(Cl)c1)c1csc(N(CCCN2CCOCC2)C(=O)c2cccs2)n1 [N-(3-chlorobenzyl)-2-(N-(3-morpholinopropyl)thiophene-2-carboxamido)thiazole-4-carboxamide]
O=C(CN1CCOCC1)NCCCN(C(=O)c1cccs1)c1nc(-c2cc3ccccc3o2)cs1 [N-(4-(benzofuran-2-yl)thiazol-2-yl)-N-(3-(2-morpholinoacetamido)propyl)thiophene-2-carboxamide]
N#Cc1ccc(-c2csc(N(CCCN3CCOCC3)C(=O)c3cccs3)n2)cc1 [N-(4-(4-cyanophenyl)thiazol-2-yl)-N-(3-morpholinopropyl)thiophene-2-carboxamide]
O=C(c1ccco1)N(CCCN1CCOCC1)c1nc(-c2cc3ccccc3o2)cs1 [N-(4-(benzofuran-2-yl)thiazol-2-yl)-N-(3-morpholinopropyl)furan-2-carboxamide]
O=C(c1cccs1)N(CCCN1CCC(O)(O)CC1)c1nc(-c2cc3ccccc3o2)cs1 [N-(4-(benzofuran-2-yl)thiazol-2-yl)-N-(3-(4,4-dihydroxypiperidin-1-yl)propyl)thiophene-2-carboxamide]
CC(C)(C)OC(=O)NC1CCN(CCCN(C(=O)c2cccs2)c2nc(-c3cc4ccccc4o3)cs2)C1 (stereo not drawn) [tert-butyl 1-(3-(N-(4-(benzofuran-2-yl)thiazol-2-yl)thiophene-2-carboxamido)propyl)pyrrolidin-3-ylcarbamate]
O=C(CCN(C(=O)c1cccs1)c1nc(-c2cc3ccccc3o2)cs1)N1Cc2ccccc2C1 [N-(4-(benzofuran-2-yl)thiazol-2-yl)-N-(3-(isoindolin-2-yl)-3-oxopropyl)thiophene-2-carboxamide]
CN1CCN(CCCN(C(=O)c2cccs2)c2nc(-c3cc4ccccc4o3)cs2)CC1 [N-(4-(benzofuran-2-yl)thiazol-2-yl)-N-(3-(4-methylpiperazin-1-yl)propyl)thiophene-2-carboxamide]
COc1ccc(-c2csc(N(CCCN3CCOCC3)C(=O)C3CCCCC3)n2)cc1 [N-(4-(4-methoxyphenyl)thiazol-2-yl)-N-(3-morpholinopropyl)cyclohexanecarboxamide]
O=C(O)C1CCCN(C(=O)CCN(C(=O)c2cccs2)c2nc(-c3cc4ccccc4o3)cs2)C1 (stereo not drawn) [1-(3-(N-(4-(benzofuran-2-yl)thiazol-2-yl)thiophene-2-carboxamido)propanoyl)piperidine-3-carboxylic acid]
O=C(c1cccs1)N(CCCN1CCCCC1CO)c1nc(-c2cc3ccccc3o2)cs1 (stereo not drawn) [N-(4-(benzofuran-2-yl)thiazol-2-yl)-N-(3-(2-(hydroxymethyl)piperidin-1-yl)propyl)thiophene-2-carboxamide]
CC(=O)N1CCC(C(=O)NCCCN(C(=O)c2cccs2)c2nc(-c3cc4ccccc4o3)cs2)CC1 [1-acetyl-N-(3-(N-(4-(benzofuran-2-yl)thiazol-2-yl)thiophene-2-carboxamido)propyl)piperidine-4-carboxamide]
